Patent US20160139154A1, “METHODS FOR DETERMINING TOTAL BODY SKELETAL MUSCLE MASS” (THE REGENTS OF THE UNIVERSITY OF CALIFORNIA, priority 2013, published 2016)

How the values were obtained:
[1] = Pharmacokinetics of D3-creatine in plasma after a single oral tracer dose; type: in vivo, human; conditions: healthy subjects
Experimental: Subjects were housed on the in-patient unit for the full 5 day study. Subjects were admitted on Day-1, for baseline evaluation and acclimation.
(§1) In the older subjects, sampling was extended to 72 hr (24, 36, 48, and 72 hr). Urine was collected continuously beginning at baseline, day −1, through day 5 of the study in timed intervals. On Day −1, subjects entered the clinic prior to noon, and timed urine collections began at 12:00 PM with 12:00 PM being time 0 (0-4, 4-8, 8-12, 12-20 h), and completed at 8:00 AM the next day, Day 1.
(§2) Total body creatine pool size and muscle mass were calculated from D3-creatinine enrichment in urine. Total body muscle mass was measured by MRI (serial cross sections), and total lean body mass (LBM) and appendicular lean mass (ALM) were measured by DXA during the subjects' stay on the inpatient unit.

[2] = Urinary excretion and renal clearance of the D3-creatine tracer dose; type: in vivo, human
Experimental: as §1, §2
The data were analyzed in SAS v9.2 (SAS Institute, Cary, N.C.) and graphs were produced in either SAS or TSCG. […] There were no adjustments for multiplicity.

[3] = in vivo, po
Experimental: Enrichment of D3-creatinine in urine to total creatinine in urine was determined for each urine collection interval. Achievement of steady-state enrichment was determined by a combination of visual inspection and linear regression. […] Linear regression of the enrichment ratio on time (midpoint of the urine collection interval) was performed for each subject separately. […] The earliest time point included in the final regression was defined as the time to achievement of steady-state.

| cleared from plasma ([1]; single oral tracer dose 30-100 mg, within 24 h) [%] | cleared from plasma by 72 h ([1]; single oral tracer dose, by 72 h) | % of D3-creatine recovered in urine over 120 h ([2]; range across subjects, single oral dose 30-100 mg) [%] | renal clearance ([2]; human, in vivo) [mL/min] | renal clearance as % of the dose ([2]; human, in vivo) | time to achievement of steady-state enrichment in urine [3] [h] | Compound |
| --- | --- | --- | --- | --- | --- | --- |
| ~80 | essentially cleared | 0.1 to 34 | – | – | – | [2H]C([2H])([2H])N(CC(=O)O)C(=N)N [D3-creatine] |
| – | – | – | 0.26 to 56 | 0.1% to 34 | 30.7 | D3-creatinine |
